Source: PubChem BioAssay (NCI)
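Cells were grown in 96-well plates and exposed to each compound for 48 hours at five concentrations; endpoints were interpolated linearly between bracketing concentrations, or set to the highest concentration if not reached. GI50: concentration for 50% inhibition of growth. TGI: concentration producing complete growth inhibition.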

What was measured:
Test in all cases: NCI-60 cell line screen, 48 h
COLO 205 colon = test system: COLO 205 colon
HCC-2998 colon = test system: HCC-2998 colon
HCT-116 colon = test system: HCT-116 colon
HOP-92 NSCLC = test system: HOP-92 NSCLC
OVCAR-3 ovarian = test system: OVCAR-3 ovarian
SK-MEL-2 melanoma = test system: SK-MEL-2 melanoma
SK-OV-3 ovarian = test system: SK-OV-3 ovarian
SR leukemia = test system: SR leukemia
U251 CNS = test system: U251 CNS
UO-31 renal = test system: UO-31 renal

| Structure (SMILES) | GI50 (COLO 205 colon) [µM] | TGI (COLO 205 colon) [µM] | GI50 (HCC-2998 colon) [µM] | TGI (HCC-2998 colon) [µM] | GI50 (HCT-116 colon) [µM] | TGI (HCT-116 colon) [µM] | GI50 (HOP-92 NSCLC) [µM] | TGI (HOP-92 NSCLC) [µM] | GI50 (OVCAR-3 ovarian) [µM] | TGI (OVCAR-3 ovarian) [µM] | GI50 (SK-MEL-2 melanoma) [µM] | TGI (SK-MEL-2 melanoma) [µM] | GI50 (SK-OV-3 ovarian) [µM] | TGI (SK-OV-3 ovarian) [µM] | GI50 (SR leukemia) [µM] | TGI (SR leukemia) [µM] | GI50 (U251 CNS) [µM] | TGI (U251 CNS) [µM] | GI50 (UO-31 renal) [µM] | TGI (UO-31 renal) [µM] |
| --- | --- | --- | --- | --- | --- | --- | --- | --- | --- | --- | --- | --- | --- | --- | --- | --- | --- | --- | --- | --- |
| O=C(Nc1cccc(C(F)(F)F)c1)c1cc2ccccc2cc1O | 1.9 | 4.6 | 3.35 | 28.8 | 1.15 | 10.1 | 0.252 | 1.61 | 0.783 | 6.1 | 2.7 | 18.7 | 1.55 | 6.32 | 0.533 | 12.3 | 1.23 | > 100 | 1.12 | > 22.1 |
| Cc1ccc(-c2n[nH]c(=O)c3noc(-c4ccc(C)cc4)c23)cc1 | 0.752 | 5.05 | 3.89 | > 100 | 0.557 | 75.5 | 0.194 | 0.962 | 1 | 3.41 | 0.451 | 9.49 | 1.51 | 11.5 | 0.441 | > 100 | 0.814 | 18.8 | 1.26 | 44.9 |
| N#C/C(=C\c1ccc2[nH]ccc2c1)C(=O)c1ccc(O)c(O)c1 |  | > 100 |  | > 100 |  | > 100 |  | > 100 |  | 79.3 |  | > 100 |  | > 100 |  | > 100 |  | > 100 |  | > 100 |
| C/C(=N/O)c1ccc(Nc2cc(-n3ccnc3)c3ccccc3n2)cc1 | 11.8 | > 100 | 48 | > 100 | 14.6 | 38.9 | 38.3 | > 100 | 22.5 | 91.3 | 38.5 | > 100 | > 100 | > 100 | 3.78 | > 100 | 27.3 | > 100 | 15.3 | > 100 |
| CC(C(N)=O)N(C)C(=O)c1cnc2ccccc2c1 (stereo not given) |  | > 100 |  | > 100 |  | > 100 |  | > 100 |  | > 100 |  | > 100 |  |  |  | > 100 |  | > 100 |  | > 100 |
| CC(=O)c1c2c(cc3c1CC1(C3)Cc3cc4c(c(C(=O)O)c3C1)CCC4)CCC2 (stereo not given) |  | 68.1 |  | > 100 |  | 67.8 |  | 81.2 |  | 47.2 |  |  |  |  |  | 80.2 |  | 70.6 |  | 72.7 |
| O=S(=O)(O)SCCNCCCCCC1CCCCC1 |  | 30.3 |  | 10.5 |  | 10.2 |  | 39.9 |  | 11.2 |  | 8.68 |  | 31.2 |  | > 33.3 |  | 11.7 |  | 29.8 |
| O=C(/C=C/c1ccc([N+](=O)[O-])cc1)c1cccc(Nc2nc(Nc3ccccc3)nc(Nc3ccccc3)n2)c1 | 13 | 61.2 | 18.1 | 68.6 |  |  | 0.662 | 8.5 | 11.3 | 63.4 | 17.7 | 54.6 | 73.8 | > 100 | 0.484 | 6.92 | 12 | > 100 | 2.18 | > 100 |
| COc1ccc(C2=Nc3c/c(=C\c4c(O)[nH]c5cc(Cl)ccc45)ccc3=N2)cc1 | 7.19 | 21 | 10.2 | 22.1 | 2.38 | 8.8 | 0.553 | 9.83 | 2.43 | 8.24 | 8.86 | 26.6 | 12.4 | 30.5 | 1.13 | 3.89 | 2.08 | 5.64 | 10.2 | 26.7 |
| CCCCCCCCCCCCCCCCOCC(O)CO (stereo not given) |  | 50.8 |  | 32.2 |  | 34.1 |  | 41.9 |  | 46.7 |  | 40.1 |  | 31.3 |  | 28.5 |  | 36.2 |  | 32.4 |
| Cc1noc(/N=C2\C=C(Nc3onc(C)c3C)C(=O)c3ccccc32)c1C |  | > 100 |  | > 100 |  | > 100 |  | > 100 |  | 83 |  | > 100 |  | > 100 |  | > 100 |  | > 100 |  | > 100 |
| Cc1c(Cl)cccc1NC(=O)c1sc2nc3c(cc2c1N)CCCC3 | 0.719 | > 100 | > 100 | > 100 | 0.425 | > 100 | 0.994 | > 100 | 0.378 | > 100 | 0.46 | > 100 | 0.444 | > 100 | 0.315 | > 100 | 0.504 | > 100 | 3.03 | > 100 |
| CCCCCCCCCCCCCCCCCC(=O)NCC(COP(=O)(O)O)OCC (stereo not given) |  | > 100 |  | > 100 |  | > 100 |  | 42.4 |  | > 100 |  | > 100 |  | > 100 |  | > 100 |  |  |  | 83.2 |
| O=C(CCCCCCCCC(=O)N/N=C\c1cc(Cl)ccc1O)N/N=C\c1cc(Cl)ccc1O | 3.19 | > 100 | 3.32 | > 100 | 0.308 | > 100 | 0.105 | 37.5 | 0.311 | > 100 | 0.441 | 18.9 | 0.685 | 79.9 | 0.0955 | 16.7 | 0.192 | 25.9 | 0.152 | > 100 |
| CN1CCN(c2ccc3nc(-c4ccc(OCCCCN5CCN(CCCCN6C(=O)c7cccc8cccc(c78)C6=O)CC5)cc4)[nH]c3c2)CC1 | 96.8 | > 100 | > 100 | > 100 | > 100 | > 100 | 71.4 | > 100 | 36.6 | > 100 | 95.6 | > 100 | > 100 | > 100 | 12.9 | > 100 | 27.9 | > 100 | 58.4 | > 100 |
| Nc1ccn(C2OC(C(OC3OC(CO)C(O)C(N)C3O)C(O)C(O)C(O)C(O)CO)C(N)C(O)C2O)c(=O)n1 (stereo not given) |  | > 100 |  | 32.9 |  | > 100 |  | 24.6 |  | 86.6 |  | > 100 |  |  |  | > 100 |  | > 100 |  | > 100 |
| Oc1ccc(Cl)cc1/C=N\NC(=S)N/N=C/c1cc(Cl)ccc1O | 3.34 | 41.6 | 3.55 | 86.8 | 1.42 | 18.5 | 1.92 | 14.7 | 1.87 | 11.7 | 1.87 | 10.1 |  |  | 1.22 | 40.9 | 1.08 | > 100 | 1.05 | 15.5 |
| COc1cc(Cn2c(-c3ccccc3)cc3c2-c2oncc2CC3)cc(OC)c1 | 0.256 | 0.653 | 0.387 | > 100 | 0.354 | > 46.8 | 4.11 | > 100 | 0.204 | 0.477 | 81.2 | > 100 | 0.4 | > 100 | 0.308 | > 40.7 | 0.427 | > 100 | 0.665 | > 100 |
| Cn1cc(NC(=O)Nc2cc(C(=O)Nc3cc(C(=O)Nc4cc(S(=O)(=O)O)c5cc(S(=O)(=O)O)cc(S(=O)(=O)O)c5c4)n(C)c3)n(C)c2)cc1C(=O)Nc1cc(C(=O)Nc2cc(S(=O)(=O)O)c3cc(S(=O)(=O)O)cc(S(=O)(=O)O)c3c2)n(C)c1 |  | > 100 |  | > 100 |  | > 100 |  | > 100 |  | > 100 |  |  |  | > 100 |  | > 100 |  | > 100 |  | > 100 |
| CC(C)(C)Sc1nnc(SC(C)(C)C)c2c(=O)[nH]nc(SC(C)(C)C)c12 |  | 25.2 |  | 23.9 |  | 15.9 |  | 14.1 |  | 22.6 |  |  |  | 32.5 |  | 19.1 |  | 19.7 |  | 19.7 |
| N#CC(C(=O)CCCC(=O)Nc1ccc(Cl)cc1Cl)c1ccc(Cl)cc1 (stereo not given) |  | > 100 |  | > 100 |  | > 100 |  | > 100 |  | > 100 |  | > 100 |  | > 100 |  | > 100 |  |  |  | > 100 |
| Cc1cc(Br)cc(C)c1NC(=O)C(=O)Nn1c(=S)[nH]c2ccccc2c1=O |  |  |  | > 100 |  | > 100 |  | > 100 |  | > 100 |  | > 100 |  | > 100 |  | > 100 |  | > 100 |  | > 100 |
| Cc1cc2nc3c4ccc(Br)cc4n(CCN(C)C)c3nc2cc1C |  |  | 1.23 | 2.74 | 0.451 | 2.14 | 1.3 | 5.28 | 2.04 | 6.96 | 2 | 4.24 | 2.65 | 12.7 | 0.423 | 10 | 1.47 | 4.44 | 0.561 | 9.5 |
